The record followed here is US20250043285A1, “Mammalian ATG8 Proteins and ATG9A Direct Sealing of Autophagosomal Membranes” (UNM Rainforest Innovations, priority 2023, published 2025).

Assay [1] concerns Huh7^WT and Huh7^ATG9AKO cells. In words: Western blot of Parkin and COX-II under CCCP-induced mitophagy. In kind it is cell-based. To be noted: BafA1 100 nM. From the text:
13A. Schematic representation of proximity biotinylation proteomics (process stages) for LC MS/MS identification of APEX2-ATG9A partners in cells subjected to EBSS-induced autophagy and CCCP-induced mitophagy. 13B, List of ATG9A's key ESCRTs interactors and their peptide counts. 13C, HeLa^WT and HeLa^ATG9AKO cell line stably expressing YFP-Parkin were induced for mitophagy by CCCP or Olygomycin A and Antimycin A (OA). HCM was used to quantify mitophagy by determining remaining mtDNA puncta per cell. Blue squares, HeLa^WT stably expressing YFP-Parkin; red squares, HeLa^ATG9AKO stably expressing YFP-Parkin. 13D, HCM images illustrating mtDNA (red mask) in HeLa^WT and HeLa^ATG9AKO cells stably expressing YFP-Parkin. 13E, Western blot analysis of Huh7^WT and Huh7^ATG9AKO cells, under control conditions (full medium) or subjected to CCCP-induced mitophagy. […] 13G, Western blot analysis of LC3B lipidation in control and CCCP-induced mitophagy condition in Huh7^ATG9AWT or Huh7^ATG9AKO. 13H, Quantification of LC3B dots in Huh7^WT and Huh7^ATG9AKO cells under control conditions or subjected to CCCP-induced mitophagy. […] 13J,13K Quantification of p62 and NDP52 levels in control and proteinase K-treated samples. Statistical significance was determined by one-way ANOVA followed by Tukey's multiple comparison test, P<0.01. […]
(A western blot detects proteins with antibodies after separation by electrophoresis.)

Assay [2] relates to HeLa cells stably expressing HT-LC3B (LC3B^+ membranes including autophagosomes). In words: HT-LC3B MIL/MPL assay by high content microscopy (autophagic membrane sealing). In kind it is cell-based. As for the experimental part: HCM: MIL/MPL assay for assessment of autophagic membrane sealing. HaloTag-LC3B stable cell lines were seeded in 96 well plate at the density of 8,000 cells/well. After 18-24 h cells were induced for autophagy (EBSS for 90 min) or mitophagy (20 μM CCCP for 6 h). After induction, cells were incubated with Membrane Impermeant Ligand (MIL: Alexa Fluor-660 663Ex/690Em, 1 μM, Promega, G8471) prepared in 1×MAS buffer (220 mM mannitol, 70 mM sucrose, 10 mM KH2PO4, 5 mM MgCl2, 2 mM HEPES, 1 mM EGTA, from Sigma) containing XF-PMP (Agilent; 102504-100, 1.5 nM for Huh7 and 4 nM for HeLa cells) at 37° C. for 15 min. Cells were washed twice with 1×PBS and fixed with 4% paraformaldehyde (PFA, Sigma) in PBS for 5 min at RT. Cells were again washed twice with 1×PBS and incubated with Membrane-Permeant Ligand (MPL: TMR 5 μM, 555Ex/585Em, Promega, G8251) for 30 min at RT. Cells were washed once with 1×PBS and stained with Hoechst 33342 (Thermo Scientific, H3570, 1:1000) for 10 min at RT. Cells were washed twice and plate was scanned by High Content Microscopy (HCM) for automated image acquisition and quantification, iDEV software (Thermo) in 96-well plates^5. To test the role of mATG8s in autophagosome closure, we used the previously described strategy^41 employing stable cell lines expressing HT-LC3B, used to assess autophagosomal closure^41, 42, 45. We adapted this assay for high content microscopy (HCM) to allow unbiased operator-independent image collection, object identification and quantification, as previously established^30, 75 (FIG. 1C). […] The plates were scanned to quantify MPL^+ (sealed) and MIL^+ (unsealed) autophagosomes and any additional LC3B^+ structures, and data (quantitative HCM) presented as the number of MIL^+ or MPL^+ profiles/cell and their ratios (MIL/MPL) (FIG. 1D). MIL^+MPL^+ profiles were also observed but represented a very small fraction (<5%) and were not differentiated in quantifications.

“Also recorded” adds a separate entry of the source.

Take `CO/C1=C\C(C)=C\[C@@H](C)[C@@H](O)[C@@H](C)C/C(C)=C/C=C/[C@H](OC)[C@@H]([C@@H](C)[C@@H](O)[C@H](C)[C@@]2(O)C[C@@H](O)[C@H](C)[C@@H](C(C)C)O2)OC1=O` [BafA1, Bafilomycin A1]: the “Parkin and COX-II levels (immunoblot)” value in assay [1] was “accumulation of Parkin and COX-II”. Moreover, the “MPL^+ (sealed) profiles/cell” value is “could not be enhanced by BafA1 treatment” in assay [2] (HeLa^HexaKO HT-LC3B cells, starved in EBSS 90 min, 100 nM BafA1); “no detectable further MPL^+ increase” in assay [2] (HeLa^HexaKO, HeLa^LC3TKO and HeLa^GABATKO HT-LC3B cells, EBSS, 100 nM BafA1); “further elevated; also recorded: further increased in the presence of BafA1” in assay [2] (HeLa^WT HT-LC3B cells, starved in EBSS 90 min, 100 nM BafA1, vs EBSS alone).
